In patent US20150087627A1, “COMBINATION OF KINASE INHIBITORS AND USES THEREOF” (Intellikine LLC, priority 2011, published 2015):
Like-named read-outs stand apart in the source and are kept apart here.

Assays:
Type in all cases: biochemical
[1] = biological target: T1, PI3K α (p110α/p85α) (Homo sapiens, UniProt P42336); test: PI 3-Kinase (human) HTRF assay, PI3K α; conditions: read-out: PI3K α IC50
T1 construct: purchased Upstate / Millipore Corporation

[2] = biological target: T2, PI3K γ (p110γ) (Homo sapiens, UniProt P48736); test: PI 3-Kinase (human) HTRF assay, PI3K γ; conditions: read-out: PI3K γ IC50
T2 construct: purchased Upstate / Millipore Corporation
T2 sequence (P48736 whole entry): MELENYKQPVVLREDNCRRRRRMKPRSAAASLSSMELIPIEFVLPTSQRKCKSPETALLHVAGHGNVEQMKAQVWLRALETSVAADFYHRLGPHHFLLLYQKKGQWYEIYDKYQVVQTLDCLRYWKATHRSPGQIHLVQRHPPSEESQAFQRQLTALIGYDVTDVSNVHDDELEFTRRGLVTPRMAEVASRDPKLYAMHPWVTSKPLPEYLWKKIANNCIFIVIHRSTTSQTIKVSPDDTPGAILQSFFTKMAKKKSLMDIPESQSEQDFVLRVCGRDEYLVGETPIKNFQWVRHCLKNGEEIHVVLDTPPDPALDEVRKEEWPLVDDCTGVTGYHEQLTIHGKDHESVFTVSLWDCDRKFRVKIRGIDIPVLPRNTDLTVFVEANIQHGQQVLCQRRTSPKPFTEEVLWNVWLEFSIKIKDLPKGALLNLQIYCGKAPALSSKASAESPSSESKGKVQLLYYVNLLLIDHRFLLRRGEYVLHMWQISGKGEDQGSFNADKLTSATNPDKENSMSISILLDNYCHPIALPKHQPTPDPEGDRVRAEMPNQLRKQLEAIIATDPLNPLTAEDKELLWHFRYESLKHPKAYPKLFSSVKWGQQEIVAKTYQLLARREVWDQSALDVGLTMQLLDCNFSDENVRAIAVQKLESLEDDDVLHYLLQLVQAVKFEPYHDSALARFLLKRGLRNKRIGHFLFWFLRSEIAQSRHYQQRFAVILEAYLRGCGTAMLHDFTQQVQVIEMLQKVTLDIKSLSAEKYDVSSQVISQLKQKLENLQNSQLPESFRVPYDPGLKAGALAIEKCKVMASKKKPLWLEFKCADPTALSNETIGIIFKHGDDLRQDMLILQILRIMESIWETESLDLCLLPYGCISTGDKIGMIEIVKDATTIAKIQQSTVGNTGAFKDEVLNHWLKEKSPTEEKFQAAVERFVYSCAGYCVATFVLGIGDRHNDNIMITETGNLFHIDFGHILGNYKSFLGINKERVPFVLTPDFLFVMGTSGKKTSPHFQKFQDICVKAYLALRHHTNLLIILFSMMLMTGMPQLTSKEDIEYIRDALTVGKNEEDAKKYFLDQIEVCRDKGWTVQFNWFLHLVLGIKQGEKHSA

[3] = biological target: T3, PI3K δ (Homo sapiens, UniProt O00329); test: PI 3-Kinase (human) HTRF assay, PI3K δ; conditions: read-out: PI3K δ IC50
T3 construct: purchased Upstate / Millipore Corporation
T3 sequence (O00329 whole entry): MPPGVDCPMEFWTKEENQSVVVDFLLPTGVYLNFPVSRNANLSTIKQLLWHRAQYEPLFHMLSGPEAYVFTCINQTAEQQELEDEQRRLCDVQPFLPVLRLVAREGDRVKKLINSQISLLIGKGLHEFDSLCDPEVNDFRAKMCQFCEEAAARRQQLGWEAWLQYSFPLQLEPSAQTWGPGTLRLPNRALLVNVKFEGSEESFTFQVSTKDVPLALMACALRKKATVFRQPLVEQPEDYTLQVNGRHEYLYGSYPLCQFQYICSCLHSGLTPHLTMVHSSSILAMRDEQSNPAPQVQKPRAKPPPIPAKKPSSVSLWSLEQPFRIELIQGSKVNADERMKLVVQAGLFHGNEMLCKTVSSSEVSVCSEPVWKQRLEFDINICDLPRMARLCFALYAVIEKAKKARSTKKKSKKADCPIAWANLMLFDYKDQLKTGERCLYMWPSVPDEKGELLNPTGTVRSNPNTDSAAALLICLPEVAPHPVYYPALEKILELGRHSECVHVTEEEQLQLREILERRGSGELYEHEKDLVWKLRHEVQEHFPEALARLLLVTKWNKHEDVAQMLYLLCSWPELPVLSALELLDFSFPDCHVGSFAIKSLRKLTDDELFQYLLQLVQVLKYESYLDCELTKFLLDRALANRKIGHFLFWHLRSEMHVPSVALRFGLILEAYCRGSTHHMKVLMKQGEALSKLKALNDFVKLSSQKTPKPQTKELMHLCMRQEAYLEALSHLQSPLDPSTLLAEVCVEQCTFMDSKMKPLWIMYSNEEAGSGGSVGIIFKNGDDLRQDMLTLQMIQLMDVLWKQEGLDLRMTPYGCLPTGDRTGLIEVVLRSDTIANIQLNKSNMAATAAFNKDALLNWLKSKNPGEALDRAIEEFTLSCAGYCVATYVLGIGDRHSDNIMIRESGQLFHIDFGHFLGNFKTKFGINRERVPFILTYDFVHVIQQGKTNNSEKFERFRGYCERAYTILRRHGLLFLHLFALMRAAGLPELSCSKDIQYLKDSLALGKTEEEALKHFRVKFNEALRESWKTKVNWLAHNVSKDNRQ
T3 sequence (P27986 whole entry partner): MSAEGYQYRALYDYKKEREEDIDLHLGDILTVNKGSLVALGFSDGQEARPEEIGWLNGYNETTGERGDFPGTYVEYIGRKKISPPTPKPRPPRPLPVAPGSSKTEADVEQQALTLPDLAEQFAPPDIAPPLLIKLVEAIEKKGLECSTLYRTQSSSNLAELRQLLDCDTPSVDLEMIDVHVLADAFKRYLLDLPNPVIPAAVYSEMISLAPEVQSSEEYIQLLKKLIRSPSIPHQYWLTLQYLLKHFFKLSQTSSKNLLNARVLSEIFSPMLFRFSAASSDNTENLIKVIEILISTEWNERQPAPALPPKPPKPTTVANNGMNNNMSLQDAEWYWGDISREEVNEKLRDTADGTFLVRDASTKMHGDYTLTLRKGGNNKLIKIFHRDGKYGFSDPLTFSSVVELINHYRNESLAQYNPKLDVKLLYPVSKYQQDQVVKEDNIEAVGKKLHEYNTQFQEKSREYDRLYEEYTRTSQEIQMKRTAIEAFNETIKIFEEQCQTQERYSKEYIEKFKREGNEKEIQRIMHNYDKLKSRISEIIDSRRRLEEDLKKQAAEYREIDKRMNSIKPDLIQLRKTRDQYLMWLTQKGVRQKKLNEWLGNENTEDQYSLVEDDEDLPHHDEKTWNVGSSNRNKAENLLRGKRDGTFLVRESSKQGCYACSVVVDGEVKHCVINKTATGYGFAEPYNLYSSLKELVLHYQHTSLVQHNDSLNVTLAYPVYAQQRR

[4] = biological target: T4, PI3K β (p110β/p85α) (Homo sapiens, UniProt P42338); test: PI 3-Kinase (human) HTRF assay, PI3K β; conditions: read-out: PI3K β IC50
T4 construct: purchased Upstate / Millipore Corporation
T4 sequence (P42338 whole entry): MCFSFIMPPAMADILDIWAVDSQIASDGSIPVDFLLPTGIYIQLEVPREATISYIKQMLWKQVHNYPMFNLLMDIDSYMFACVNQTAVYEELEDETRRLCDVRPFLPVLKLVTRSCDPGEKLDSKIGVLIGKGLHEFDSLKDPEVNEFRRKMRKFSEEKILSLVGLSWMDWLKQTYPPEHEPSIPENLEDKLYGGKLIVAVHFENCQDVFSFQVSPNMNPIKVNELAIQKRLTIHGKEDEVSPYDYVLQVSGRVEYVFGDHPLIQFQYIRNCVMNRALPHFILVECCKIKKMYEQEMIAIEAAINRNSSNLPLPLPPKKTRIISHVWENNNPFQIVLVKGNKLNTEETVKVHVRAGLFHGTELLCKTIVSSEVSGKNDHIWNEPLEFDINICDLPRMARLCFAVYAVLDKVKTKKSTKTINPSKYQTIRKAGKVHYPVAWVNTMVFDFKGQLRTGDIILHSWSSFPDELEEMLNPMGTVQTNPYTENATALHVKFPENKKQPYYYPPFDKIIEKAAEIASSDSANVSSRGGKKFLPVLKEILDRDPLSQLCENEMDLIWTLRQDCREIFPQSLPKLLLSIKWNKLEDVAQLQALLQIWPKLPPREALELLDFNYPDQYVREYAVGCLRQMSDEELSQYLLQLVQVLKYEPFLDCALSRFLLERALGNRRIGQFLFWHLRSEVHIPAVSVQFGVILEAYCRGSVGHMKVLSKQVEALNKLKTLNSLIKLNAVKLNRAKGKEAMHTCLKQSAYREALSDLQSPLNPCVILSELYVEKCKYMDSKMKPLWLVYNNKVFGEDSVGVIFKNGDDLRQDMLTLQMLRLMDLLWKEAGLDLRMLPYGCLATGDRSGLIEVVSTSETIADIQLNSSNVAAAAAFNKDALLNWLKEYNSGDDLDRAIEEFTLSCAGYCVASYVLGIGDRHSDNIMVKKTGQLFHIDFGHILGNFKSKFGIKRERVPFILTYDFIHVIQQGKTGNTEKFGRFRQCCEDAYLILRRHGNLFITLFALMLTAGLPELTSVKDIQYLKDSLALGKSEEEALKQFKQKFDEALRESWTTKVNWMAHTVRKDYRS
T4 sequence (P27986 whole entry partner): as the sequence (P27986 whole entry partner) above

T1 sequence (P42336 whole entry): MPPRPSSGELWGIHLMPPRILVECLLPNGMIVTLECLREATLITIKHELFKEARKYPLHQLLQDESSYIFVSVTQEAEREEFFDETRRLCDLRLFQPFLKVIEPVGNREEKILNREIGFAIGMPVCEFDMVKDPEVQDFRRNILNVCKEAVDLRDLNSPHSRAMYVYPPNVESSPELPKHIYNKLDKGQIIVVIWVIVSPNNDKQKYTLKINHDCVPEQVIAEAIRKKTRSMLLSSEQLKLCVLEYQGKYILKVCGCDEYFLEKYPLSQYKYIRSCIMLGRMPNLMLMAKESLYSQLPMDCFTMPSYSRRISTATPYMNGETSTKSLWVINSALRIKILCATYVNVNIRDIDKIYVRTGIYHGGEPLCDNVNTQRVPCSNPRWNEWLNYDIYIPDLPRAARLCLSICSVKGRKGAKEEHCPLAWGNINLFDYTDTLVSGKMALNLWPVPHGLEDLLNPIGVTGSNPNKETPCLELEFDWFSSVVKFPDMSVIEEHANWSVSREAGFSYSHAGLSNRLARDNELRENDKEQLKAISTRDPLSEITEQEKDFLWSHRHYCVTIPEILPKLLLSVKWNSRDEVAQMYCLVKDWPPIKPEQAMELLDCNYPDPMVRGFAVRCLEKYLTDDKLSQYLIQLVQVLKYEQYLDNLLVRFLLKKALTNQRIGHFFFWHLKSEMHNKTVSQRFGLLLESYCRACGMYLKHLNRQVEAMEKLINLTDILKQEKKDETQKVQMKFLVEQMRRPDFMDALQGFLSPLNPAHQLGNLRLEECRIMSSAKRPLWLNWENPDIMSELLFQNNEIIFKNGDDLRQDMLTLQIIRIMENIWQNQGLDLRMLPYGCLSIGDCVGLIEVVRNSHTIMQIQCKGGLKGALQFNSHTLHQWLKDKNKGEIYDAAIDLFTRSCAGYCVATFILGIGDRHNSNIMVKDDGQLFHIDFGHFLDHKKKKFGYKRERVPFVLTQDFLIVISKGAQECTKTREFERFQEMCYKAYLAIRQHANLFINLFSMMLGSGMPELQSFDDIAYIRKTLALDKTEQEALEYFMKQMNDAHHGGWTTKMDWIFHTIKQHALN
T1 sequence (P27986 whole entry partner): as the sequence (P27986 whole entry partner) above

Compound | IC50 [1] [µM] | IC50 [3] [µM] | IC50 ([1]; Table 4 (PI3K α inhibitors)) [µM] | IC50 ([2]; Table 4 (PI3K α inhibitors)) [µM] | IC50 ([3]; Table 4 (PI3K α inhibitors)) [µM] | IC50 [4] [µM] | IC50 ([4]; Table 4 (PI3K α inhibitors)) [µM] | IC50 [2] [µM]
CN1CCN(c2cc(-c3ccnc4ccc(-c5ccc6oc(N)nc6c5)cc34)ccn2)CC1 [Compound 30] | < 0.1 | < 0.1 |  |  |  |  |  | < 0.1
Nc1nc2cc(-c3ccc4ncc(N5CCC(O)CC5)nc4n3)ccc2o1 [Compound 596] |  |  | < 0.1 | < 0.1 | > 10 |  |  | 
CCOC(=O)N1CC=C(c2cnc3ccc(-c4ccc5oc(N)nc5c4)nc3n2)CC1 [Compound 560] |  |  | < 0.1 | < 0.1 |  |  |  | 
CN1CCN(c2ccc3ncc(-c4ccc5oc(N)nc5c4)cc3n2)CC1 [Compound 631] |  |  |  | > 10 | > 10 |  |  | 
CS(=O)(=O)N1CCN(C2CN(c3cnc4ccc(-c5ccc6oc(N)nc6c5)nc4n3)C2)CC1 [Compound 559] |  |  | < 0.1 | < 1 |  |  | > 10 | 
CC(C)N1CCN(c2cnc3ccc(-c4ccc5oc(N)nc5c4)nc3n2)CC1 [Compound 583] |  |  | < 0.1 | < 1 |  |  | < 1 | 
CN1CCN(c2cc(-c3cnc4ccc(-c5ccc6oc(N)nc6c5)cn34)ccn2)CC1 [Compound 43] | < 0.1 | < 0.1 |  |  |  |  |  | < 0.1
C[C@@H]1CN(c2cnc3ccc(-c4ccc5oc(N)nc5c4)nc3n2)CCN1 [Compound 578] |  |  | < 0.1 | < 1 |  |  | < 0.1 | 
CCN(CC)c1cnc2ccc(-c3ccc4oc(N)nc4c3)nc2n1 [Compound 577] |  |  | < 1 | < 1 |  |  | > 10 | 
Nc1nc2cc(-c3ccc4nccc(N5CCOCC5)c4c3)ccc2o1 [Compound 28] | < 0.1 | < 1 |  |  |  |  |  | < 0.1
Nc1nc2cc(-c3ccc4ncc(N5CCC(O)CC5)cc4n3)ccc2o1 [Compound 613] |  |  | < 0.1 | < 1 |  |  |  | 
Nc1nc2cc(-c3ccc4ncc(N5CC6CCC(C5)O6)cc4n3)ccc2o1 [Compound 579] |  |  |  | < 1 |  |  |  | 
Nc1nc2cc(-c3ccc4nccc(-c5cccnc5)c4c3)ccc2o1 [Compound 31] | < 0.1 | < 0.1 |  |  |  |  |  | < 0.1
CN1CCC(Oc2ncnc3ccc(-c4ccc5oc(N)nc5c4)cc23)CC1 [Compound 34] | < 0.1 | < 1 |  |  |  |  |  | < 1
Cc1ncc(-c2ccc3ncc(C(=O)N4C5CCC4COC5)n3c2)c2cn[nH]c12 [Compound 538] | < 0.1 |  |  |  |  | > 10 |  | > 10
Nc1nc2cc(-c3ccc4ncc(C5=CCOCC5)nc4n3)ccc2o1 [Compound 562] |  |  | < 0.1 | < 0.1 | > 10 |  |  | 
C[C@H]1CN(C2CN(c3cnc4ccc(-c5ccc6oc(N)nc6c5)nc4n3)C2)CCN1C [Compound 572] |  |  | < 0.1 | > 10 |  |  | > 10 | 
Nc1nc2cc(-c3ccc4ncc(-c5cn[nH]c5)n4c3)ccc2o1 [Compound 38] | < 0.1 | < 0.1 |  |  |  |  |  | < 0.1
Nc1nc2cc(-c3ccc4ncc(N5CC(N6CCN(C7CC7)CC6)C5)cc4n3)ccc2o1 [Compound 621] |  |  | < 0.1 | < 1 |  |  |  | 
CN(C)C1CCN(C(=O)c2cnc3ccc(-c4ccc5oc(N)nc5c4)cn23)CC1 [Compound 304] | < 1 | > 10 |  |  |  | > 10 |  | 

Compound | IC50 [1] [µM] | IC50 [3] [µM] | IC50 ([1]; Table 4 (PI3K α inhibitors)) [µM] | IC50 ([2]; Table 4 (PI3K α inhibitors)) [µM] | IC50 ([3]; Table 4 (PI3K α inhibitors)) [µM] | IC50 [4] [µM] | IC50 ([4]; Table 4 (PI3K α inhibitors)) [µM] | IC50 [2] [µM]
Nc1nc2cc(-c3ccc4ncc(N5CC(N6CCOCC6)C5)nc4c3)cc(Cl)c2o1 [Compound 358] | < 0.1 | < 1 |  |  |  | < 1 |  | 
Nc1nc2cc(-c3ccc4ncc(C(=O)N5CC[C@@H](F)C5)n4c3)ccc2o1 [Compound 475] | < 0.1 | < 10 |  |  |  | > 10 |  | 
CS(=O)(=O)N1CCC(n2cnc3ccc(-c4ccc5oc(N)nc5c4)cc3c2=O)CC1 [Compound 67] | < 1 | > 10 |  |  |  |  |  | > 10
Nc1nc2cc(-c3ccc4nccc(NC5CCOCC5)c4c3)ccc2o1 [Compound 32] | < 10 | > 10 |  |  |  |  |  | < 10
Nc1nc2cc(-c3ccc4ncnc(N5CCC(O)CC5)c4c3)ccc2o1 [Compound 29] | < 0.1 | < 0.1 |  |  |  |  |  | < 0.1
Nc1nc2ccc(-c3cc(F)c4oc(N)nc4c3)cc2o1 [Compound 433] | < 1 | < 10 |  |  |  | < 1 |  | 
C[C@@H]1COCCN1C1CN(c2cnc3ccc(-c4ccc5oc(N)nc5c4)nc3c2)C1 [Compound 617] |  |  | < 0.1 | < 0.1 | < 1 |  |  | 
O=C(c1cnc2ccc(-c3cccc(S(=O)(=O)Nc4ccccc4)c3)cn12)N1CCOCC1 [Compound 440] | > 10 | > 10 |  |  |  | > 10 |  | 
C[C@@H]1CN(C2CN(c3cnc4ccc(-c5ccc6oc(N)nc6c5)nc4c3)C2)CCN1 [Compound 607] |  |  | < 0.1 | < 1 | < 1 |  |  | 
CN1CCN(c2cnc3ccc(-c4ccc5nc(N)oc5c4)cc3n2)CC1 [Compound 118] | < 1 | > 10 |  |  |  | < 0.1 |  | 
CC1CN(c2cnc3ccc(-c4ccc5oc(N)nc5c4)cc3n2)CC(C)N1 (stereo not shown) [Compound 131] | < 1 | < 1 |  |  |  | < 1 |  | 
Nc1nc2cc(-c3ccc4ncc(N5CC(O)C5)nc4c3)ccc2o1 [Compound 216] | < 0.1 | < 10 |  |  |  | < 1 |  | 
Nc1nc2cc(-c3ccc4nc(N)sc4c3)cc(F)c2o1 [Compound 436] | < 0.1 | < 1 |  |  |  | < 0.1 |  | 
Nc1nc2cc(-c3ccc4nccc(-c5cn[nH]c5)c4c3)ccc2o1 [Compound 20] | < 0.1 | < 0.1 |  |  |  | < 0.1 |  | 
Nc1nc2cc(-c3ccc4nccc(CCN5CCOCC5)c4c3)ccc2o1 [Compound 27] | < 1 | < 10 |  |  |  |  |  | < 0.1
CC(=O)Nc1nc2cc(-c3ccc4oc(N)nc4c3)ccc2o1 [Compound 244] | > 10 | > 10 |  |  |  | > 10 |  | 
COCCN1CCN(c2cnc3ccc(-c4ccc5oc(N)nc5c4)cc3n2)CC1 [Compound 387] | < 0.1 | > 10 |  |  |  | < 1 |  | 
C[C@H]1CN(c2cnc3ccc(-c4cccc5c(N)nsc45)cc3n2)CCN1 [Compound 321] | > 10 | > 10 |  |  |  | > 10 |  | 
Nc1nc2cc(-c3ccc4ncc(C(=O)N5CC[C@H](n6cccn6)C5)n4c3)ccc2o1 [Compound 478] | < 0.1 | < 1 |  |  |  | < 10 |  | 

The next lines start with results.

IC50 [1] [µM] | IC50 [3] [µM] | IC50 ([1]; Table 4 (PI3K α inhibitors)) [µM] | IC50 ([2]; Table 4 (PI3K α inhibitors)) [µM] | IC50 ([3]; Table 4 (PI3K α inhibitors)) [µM] | IC50 [4] [µM] | IC50 ([4]; Table 4 (PI3K α inhibitors)) [µM] | Compound | IC50 [2] [µM]
< 0.1 | < 1 |  |  |  |  |  | Nc1nc2cc(-c3ccc4nccc(NCCN5CCOCC5)c4c3)ccc2o1 [Compound 33] | < 1
< 10 | > 10 |  |  |  |  |  | CC(=O)N1CCC(n2cnc3ccc(-c4ccc5oc(N)nc5c4)cc3c2=O)CC1 [Compound 66] | > 10
< 0.1 |  |  |  |  | > 10 |  | Cc1ncc(-c2ccc3ncc(C(=O)N4CCOCC4)n3c2)c2cn[nH]c12 [Compound 530] | > 10
 |  | < 0.1 | < 1 |  |  | < 0.1 | CN1CCN(c2cnc3ccc(-c4ccc5oc(N)nc5c4)nc3c2)CC1 [Compound 575] | 
< 0.1 |  |  |  |  | < 10 |  | Nc1nc2cc(-c3ccc4ncc(C(=O)N5CC(N6CC[C@@H](O)C6)C5)n4c3)ccc2o1 [Compound 470] | < 1
 |  | < 0.1 | < 0.1 | > 10 |  |  | C[C@H]1COCCN1c1cnc2ccc(-c3ccc4oc(N)nc4c3)nc2n1 [Compound 566] | 
 |  | < 0.1 | < 1 |  |  |  | C[C@@H](N)C(=O)N1CCN(c2cnc3ccc(-c4ccc5oc(N)nc5c4)nc3n2)CC1 [Compound 582] | 
 |  | < 0.1 | < 0.1 | > 10 |  |  | CCOC(=O)N1CCN(c2cnc3ccc(-c4ccc5oc(N)nc5c4)nc3c2)CC1 [Compound 587] | 
< 0.1 | < 10 |  |  |  | < 1 |  | CC1CN(c2cnc3ccc(-c4ccc5oc(N)nc5c4)cc3n2)CCO1 (stereo not shown) [Compound 173] | 
< 0.1 | < 1 |  |  |  | < 1 |  | CCNC(=O)c1cnc2ccc(-c3ccc4oc(N)nc4c3)cn12 [Compound 188] | 
< 1 | < 10 |  |  |  | < 10 |  | Nc1nc2cc(-c3ccc4ncc(C(=O)N5CCOCC5)n4c3)c(F)cc2o1 [Compound 372] | 
< 1 | > 10 |  |  |  | < 10 |  | CN1CCN(C(=O)c2cnc3ccc(-c4ccc5nc(N)oc5c4)cn23)CC1 [Compound 145] | 
> 10 | > 10 |  |  |  | > 10 |  | Nc1nc2cc(-c3ccc4nc(N)c(N5CC(N6CCOCC6)C5)nc4c3)ccc2o1 [Compound 404] | 
 |  | < 0.1 | < 0.1 |  |  |  | C[C@@H]1COCCN1c1cnc2ccc(-c3ccc4oc(N)nc4c3)nc2n1 [Compound 565] | 
> 10 | > 10 |  |  |  | > 10 |  | C[C@H]1CN(c2cnc3cccc(-c4ccc5oc(N)nc5c4)c3n2)CCN1 [Compound 342] | 
< 0.1 | < 1 |  |  |  | < 1 |  | CC(C)(N)C(=O)N1CCN(c2cnc3ccc(-c4ccc5oc(N)nc5c4)cc3n2)CC1 [Compound 213] | 
< 0.1 | < 10 |  |  |  | < 10 |  | Nc1nc2cc(-c3ccc4ncc(N5CC[C@@H](N6CCOCC6)C5)nc4c3)ccc2o1 [Compound 376] | 
> 10 | > 10 |  |  |  | > 10 |  | Cc1c(-c2ccc3oc(N)nc3c2)ccc2ncc(C(=O)N3CCOCC3)n12 [Compound 349] | 
< 10 | > 10 |  |  |  | > 10 |  | Nc1nc2cc(-c3ccc4ncc(C(=O)N5CCOCC5)n4c3)c(Cl)cc2o1 [Compound 370] | 
